The results in this text go back to patent US11168081B2, “Alkaloid derivative having angiogenesis inhibitory effect, and pharmaceutical composition containing same” (SEOUL NATIONAL UNIVERSITY R&DB FOUNDATION, priority 2017, dated 2021).

Molecules are shown by their SMILES.

The subject of data set [1] is HUVECs. The data set can be described thus: In vitro tube formation assay. The format is cell-based, human. The procedure:
Matrigel (70 μl/well) was coated onto a 96-well plate and polymerized for 30 minutes at 37° C. under a 5% CO2 atmosphere. HUVECs (1.5×10^4 cells/well) and various concentrations of the compound were seeded onto each well of the Matrigel-coated 96-well plate. The cells were then incubated for 8 hours at 37° C. under a 5% CO2 atmosphere. The formation of endothelial cell tubular structures was visualized under an inverted microscope and photographed (Olympus Optical Co. Ltd., Tokyo, Japan). The inhibition rate of tube formation was determined using the following equation. tube formation inhibition rate (%)=[1−(average tube numbersample−average tube numberVEGF(−))/(average tube numberVEGF(+)−average tube numberVEGF(−))]×100 [Equation 1]
The IC50 value was calculated using nonlinear regression analysis using TableCurve 2D v5.01 software (Systat Software Inc., Richmond, Calif., USA).
(§1) The same experiment was carried out for sunitinib as a positive control.
The endothelial cell tubular structure formation assay was performed in the same manner as in the Experimental Example 1.

The test system of data set [2] is HUVECs. Nature of the data set: HUVEC cell growth assay (MTT). The settings on record: Homo sapiens, HUVEC; MTT, 24 hours, in the presence of VEGF (50 ng/mL). In kind it is cell-based, human. The procedure: Human umbilical vascular endothelial cells (HUVECs) were obtained from the ATCC (Rockville, Md.) and cultured in EGM-2 (Lonza, Walkersville, Md.) supplemented with 10% FBS at 37° C. under a 5% CO2 atmosphere.
Cell growth was assessed by MTT assay. HUVECs (8×10^3 cells/well) were seeded onto a 96-well plate with EGM-2 medium supplemented with 10% FBS for 24 hours. The next day, the culture medium was removed, and the cells were then incubated with serum-free medium for 12 hours. Following serum starvation, the cells were cultured in fresh 2% FBS/EBM-2 medium containing various concentrations of the test compound for 24 hours in the presence of VEGF (50 ng/mL). After the incubation, an MTT solution was added, and the plate was incubated for additional 4 hours. The formazan product was dissolved in DMSO, and the absorbance was detected at 570 nm using a VersaMax ELISA microplate reader (Molecular Devices, Sunnyvale, Calif.).
as §1

The subject of data set [3] is HUVECs. Nature of the data set: Scratch wound migration assay. The conditions noted are these: 24 hours, concentration-dependent, FIG. 1. The format is cell-based, human. The procedure:
The scratch wound migration assay was performed as follows.
HUVECs were allowed to grow at 90% confluence in 12-well plates pre-coated with 0.2% gelatin and were then incubated for 24 hours. After the cells were attached, they were wounded by scratching with a 0.2 mL pipette tip. The plates were then washed with serum-free medium. Fresh medium was replaced with 2% FBS/EBM-2 medium containing various concentrations of the test compound. The cells were incubated for 24 hours, and images were recorded using an inverted phase-contrast light microscope (Olympus Optical Co. Ltd., Tokyo, Japan).

The subject of data set [4] is VEGFR2-mediated PI3K/AKT/eNOS and SRC/FAK signaling pathway. Nature of the data set: Biomarker analysis (immunoblot) in VEGF-stimulated HUVECs. The format is cell-based, human. The conditions noted are these: FIG. 2. The protocol:
The harvested cells were lysed by 2× sample loading buffer (250 mM Tris-HCl, pH 6.8; 4% SDS; 10% glycerol; 0.006% bromophenol blue; 2% β-mercaptoethanol; 50 mM sodium fluoride; and 5 mM sodium orthovanadate). The protein concentration was measured, and equal amounts of protein samples were subjected to 6-15% SDS-PAGE. The separated proteins were transferred to PVDF membranes (Millipore, Bedford, Mass.), which were then incubated with primary antibodies diluted in 2.5% BSA in TBST (1:500-1:1000) overnight at 4° C. The membranes were then washed three times with TBST and incubated with the corresponding secondary antibodies. Protein bands were detected with an enhanced chemiluminescence detection kit (Intron, Daejeon, Korea) and an LAS-4000 Imager (Fuji Film Corp., Tokyo, Japan).
The phosphorylation of VEGFR2 (Tyr1175) affects the activation of PI3K signaling, which leads to an increase in vascular permeability. In the VEGF signaling pathway, SRC kinases are downstream of VEGFR2 and regulate vascular permeability and angiogenesis. The activation of FAK is also an important contributor markedly involved in endothelial cell migration, proliferation and adherends junction integrity.

A short description of another data set: pKa. In kind it is physicochemical.
Data set [5] is described as follows: Aqueous solubility (pH-metric CheqSol). In kind it is physicochemical. The settings on record: 0.15 M KCl, 25° C. The procedure:
The aqueous solubility was measured by the pH-metric CheqSol technique (Sirius Analytical Instruments Ltd.). Experiments was performed in 0.15 M KCl solution under a nitrogen atmosphere, at 25° C., using standardized 0.5 M HCl and 0.5 M KOH solutions.

Another data set in a line: MDCK permeability. In kind it is in vitro ADME, canine. The conditions noted are these: dog, MDCK, pH 7.4; 10 μM, apical to basolateral. The procedure:
(§2) The permeability was examined using Madin-Darby canine kidney (MDCK) cell line. The MDCK cell line was acquired from the American Type Culture Collection (Manassas, Va.). The cells were seeded in 12 well plates and allowed to grow for 7 days at 37° C. under a 5% CO2 atmosphere. The MDCKI monolayers were equilibrated for 30 minutes in transport buffer (10 mM glucose, 4 mM sodium bicarbonate, HBSS with 1 mM HEPES, pH 7.4) at 37° C. under a 5% CO2 atmosphere prior to the experiment. The permeability of the test compound was examined at 10 μM (with a final DMSO percentage of 1%) in the apical to basolateral (A-to-B) direction. The concentration was analyzed by LC-MS/MS. The apparent permeability (Papp, A-B) was calculated using the following equation 2.
(§3) wherein, dQ/dt is the rate of compound appearance in the receiver compartment (Q is the quantity of compound), C0 is the concentration in the donor compartment, and A is the surface area of the insert.

Data set [6] concerns Madin-Darby canine kidney (MDCK) cell line. The data set can be described thus: MDCK permeability. In kind it is in vitro ADME. The settings on record: in words. The protocol: as §2, §3
A further data set is described as follows: Plasma stability. The format is in vitro ADME, human. The protocol:
For measuring plasma stability, the test compound (10 μM) was incubated with human plasma at 37° C. After 30 minutes, the reaction was quenched by adding acetonitrile (containing chlopropamide as internal standard). The samples were vortexed for 5 minutes and centrifuged at 14,000 rpm for 5 minutes at 4° C. Then, the supernatant was analyzed using a LC-MS/MS (Kinetex C18 column, Phenomenex, USA).

The nature of a further data set: Metabolic stability. In kind it is in vitro ADME, human. The protocol:
The test compound (1 μM) was incubated with human liver microsomes (HLM, 0.5 mg protein/ml) for 5 minutes at 37° C. in 100 mM potassium phosphate buffer (pH 7.4). The reaction was initiated by adding NADPH solution and incubated for 30 minutes. To terminate the reaction, acetonitrile (containing chlopropamide as internal standard) was added and centrifuged at 14,000 rpm for 5 minutes at 4° C. Then, the supernatant was analyzed using a LC-MS/MS (Kinetex C18 column, Phenomenex, USA).

The test system of data set [7] is Transgenic zebrafish (flk:EGFP) embryos. The data set can be described thus: Animal model angiogenesis inhibition assay (diabetic retinopathy). In kind it is in vivo. The conditions noted are these: zebrafish larvae. The procedure: Transgenic zebrafish (flk:EGFP) embryos were provided by the Korea Zebrafish Oraganogenesis Muatant Bank (ZOMB, Daegu, Korea). The zebrafish embryos (3 dpf) were placed in a 12-well plate with 130 mM glucose embryonic H2O and various concentrations of the test compound. At 6 dpf, zebrafish larvae were fixed by 4% paraformaldehyde and stored overnight at 4° C. Next, the larvae were washed with distilled H2O, incubated with 10× trypsin (2.5%) for 90 minutes at 37° C. under a 5% CO2 atmosphere, and washed with distilled H2O. Then, the isolated lenses were isolated from the zebrafish larvae. Optic disc (OD) branches were visualized and photographed using a fluorescence microscope (Axiovert 200M, Carl Zeiss, Del.). The diameters of the larvae vessels were measured by ImageJ software.

By IC50 is commonly meant the concentration that inhibits the measured activity by half. The pKa is the negative logarithm of the acid dissociation constant. Lower therefore signals a group that gives up its proton readily. For orientation: Aqueous Solubility means the dissolved amount per volume that the medium holds. Higher therefore signals much dissolved substance. What is called Papp A→B is how fast a substance crosses the layer from the apical side. The low end stands for slow passage, the high end for fast passage. For the compound `CCc1ccc2nc(C(c3ccc(OC)c(OC)c3)n3cc(CCN4CCCCC4)nn3)sc2c1` (stereo not drawn) [Compound I-7, 2-((3,4-dimethoxyphenyl)(4-(2-(piperidin-1-yl)ethyl)-1H-1,2,3-triazol-1-yl)methyl)-6-ethylbenzo[d]thiazole], the “enhancement of tube formation capacity by VEGF” value in the data set on HUVECs [1] (HUVECs, concentration-dependent, FIG. 1) is reported as “inhibited”. The concentration for half-maximal inhibition (IC50) in the data set with HUVECs [1] (Homo sapiens, HUVEC, HUVECs on Matrigel, 8 hours, VEGF-induced tube formation) came out at 0.631 µM; in the data set on HUVECs [2] it was 47.5 µM. Further, in the data set on HUVECs [1] (ratio of the IC50 for HUVEC cell growth to the IC50 for tube formation), the “Selectivity Index (SI)” value came out at 75.3. Moreover, the “enhancement of endothelial cell migration by VEGF” value in the data set on HUVECs [3] was “inhibited”. For the same compound, the “activation of SRC (p-SRC)/FAK (p-FAK)” value in data set [4] (VEGF-stimulated HUVECs) is recorded as “inhibited”. Also, the “levels of VEGFR2 (p-VEGFR2) activated by VEGF” value in [4] (VEGF-stimulated HUVECs) was “suppressed”. Also, the “activation of PI3K (p-PI3K), AKT (p-AKT) and eNOS (p-eNOS)” value in [4] (pretreatment 30 minutes, VEGF (50 ng/mL) 20 minutes) is “significantly suppressed”. This compound gave a pKa in the data set “pKa” of 9.24. Also, in [5], the “Aqueous Solubility” value was found to be 24 µM. Also, the Papp A→B at 10 μM in the data set “MDCK permeability” worked out at 11 ×10⁻⁶ cm/s. Also, the MDCK cell permeability entry in data set [6] was “high”. Further, the “plasma stability” value in “Plasma stability” (10 μM, human plasma, 37° C., remaining after 30 minutes) is reported as 95%; in the data set “Plasma stability” (in words), “high”. For the same compound, the “Metabolic Stability” value in “Metabolic stability” (1 μM, human liver microsomes 0.5 mg protein/ml, NADPH, 30 minutes) was found to be 31%. Moreover, the microsomal stability result in “Metabolic stability” (in words, human liver microsomes) is “good”. Moreover, the “increase in hyaloid vessel diameters induced by HG” value in data set [7] (130 mM glucose, 3 to 6 dpf, concentration-dependent, FIG. 3) was “suppressed”. Further, the “hyaloid vessel diameters in the optic disc area” value in data set [7] (high glucose, 2.5 μM) is reported as “markedly reduced”.
